Data published in EP3431088A1, “MNTBAP FOR USE IN INDUCING A TRANSIENT IMMUNE TOLERANCE” (priority 2017, dated 2019).

Legend:
[1] = tested on: injected TA muscle; assay: IM rAAV gene transfer: histology and RT-PCR of injected TA muscle; format: in vivo, C57BL/6 mice; settings: fifteen days post IM rAAV1 vector injection
[2] = tested on: lentiviral vectors pseudotyped with HIV-1 envelope protein (HXB2-env); assay: Transduction of human CD3+ T cells by HXB2-env pseudotyped lentiviral vectors (GFP); format: cell-based; settings: 400 µM, 72 hours post transduction, vs control
Method: CD3^+ T cells, from peripheral blood of healthy individual donors, are purified by positive selection via MACS beads using a magnetic cell sorting system (Miltenyi Biotec). CD3^+ T cells are activated for 3 days at 37°C, 5% CO2 in plates coated with anti-CD3 (10 µg/ml) and anti-CD28 (10 µg/ml) antibodies (both from Miltenyi Biotec) and filled with RPMI 1640 medium supplemented with 10% heat-inactivated fetal calf serum, 100 U/ml penicillin/streptomycin, 2 mM glutamax, 100 IU/ml IL-2 (Miltenyi Biotec). Cells are then transferred on retronectin (20 µg/cm2) coated-plates, in the presence or absence of MnTBAP (400 µM), at a density of 2.5 x 10^5 cells/ml for transduction during 6 h with 6 x 10^7 physical particles (pp)/ml of HXB2-env pseudotyped lentiviral vectors expressing GFP reporter gene under the control of hPGK (human phosphoglycerate kinase 1). After transduction, cells are washed and further incubated for 72 h in fresh culture medium (RPMI 1640 medium supplemented as described above). Cells are then harvested for transduction efficiency analysis by FACS, determined as the percentage of viable (7AAD-) lymphoid cells expressing GFP^+. The data are normalized to be a percentage of the control value (none) from each experiment.

[3] = tested on: splenic enriched CD4^+ T cells; assay: Cell viability by Fixable Viability Dye eFluor 780, flow cytometry; format: cell-based, murine; settings: 400 µM, 2 hours
Method: After mechanic disruption of the spleen, erythrocytes are eliminated by hypotonic shock with ammonium chloride potassium (ACK) lysing buffer. Then CD4^+ T cells are isolated from spleen cell suspension by negative selection using a CD4^+ T cell isolation kit (Miltenyi Biotec, Paris, France) followed by auto-MACS (Miltenyi Biotec) magnetic sorting, according to the manufacturer's instructions. Purity of isolated CD4^+ T cells is usually > 95%. Cell suspensions are first incubated with anti-FcγRIII/II (Fc Block, 2.4G2, BD Biosciences, Le Pont de Claix, France) monoclonal antibodies (mAb) for 10 minutes at 4°C and then stained for 30 minutes at 4°C in PBS, 0.1% bovine serum albumin (BSA) with Fc Block present, using saturating amounts of rat anti-mouse CD4-Pacific Blue (RM4-5, BD Biosciences) mAb. Gates for CD4^+ populations are set according to isotype controls. Cell viability is determined by staining with 7-aminoactinomycin D (7-AAD; Sigma-Aldrich, St-Quentin-Fallavier, France) or Fixable Viability Dye eFluor 780 (eBiosciences, Paris, France). When indicated, samples are fixed with 1% paraformaldehyde. Samples are acquired on an LSR II flow cytometer (BD Biosciences) and data were analyzed with DIVA software (BD Biosciences).

[4] = tested on: Reactive Oxygen Species (ROS); assay: In vivo chemiluminescence imaging of localized inflammation (L-012); design: species or system mice; settings: 4 days after first MnTBAP injection, IM rAAV gene transfer, vs PBS
Method: MnTBAP (Calbiochem, San Diego, USA or Enzo Life Sciences, Farmingdale, USA) is dissolved in 75 mM NaOH to constitute a 20 mM stock solution. MnTBAP is dissolved in the complete medium, used for in vitro treatment, containing RPMI-1640 supplemented with 10% heat-inactivated fetal calf serum, 100 U/ml penicillin/streptomycin, 2 mM glutamax and 50 µM β-mercaptoethanol β-ME). Hypertonic medium, used to block clathrin dependent endocytosis, is complete medium supplemented with 0.45 M sucrose. For in vivo treatment, the stock solution is diluted with PBS and administered at 80 mg/kg intraperitoneally daily during five days. Control animals are injected with equivalent volume of PBS.
Intramuscular (IM) injection: Two hours post first intraperitoneal (IP) injection of MnTBAP, mice are anesthetized by IP injection of xylazine (10 mg/kg) and ketamine (100 mg/kg) and 25 µl of a rAAV2/1 CMV SGCA HY viral preparation containing 2.5.10^9 vg is injected in the left tibialis anterior muscle (TA). Controls are injected with PBS. Mice are sacrificed 15 days after vector injection and the injected muscles are harvested to perform histologic analysis. […]
After mice isofluorane anaesthesia, 100 µl of L-012 solution (15 mg/ml) (Wako, Osaka, Japan) are administered intravenously in retro-orbital sinus 4 days after first MnTBAP injection. […] Radiance (ph/s/cm^2/sr) is measured for each Region of Interest (ROI).

[5] = tested on: CD4 and P56^Lck; assay: CD4 immunoprecipitation probed with anti-p56Lck; format: cell-based; settings: viable murine splenic enriched CD4+ T cells, 2 hours, 400 µM
Method: Cells, harvested after 2 hours of culture with or without MnTBAP, are resuspended in solubilization buffer containing 1% NP-40 (Sigma-Aldrich), 0.1 M (NH4)2SO4, 20 mM Tris (pH 7.5), 10% glycerol, 25 mM NaF (Sigma-Aldrich), 1 mM Na3VO4 (Thermo Fisher Scientific, Villebon-sur-Yvette, France) and 1x protease inhibitor mixture (Roche, Basel, Switzerland). After 30 minutes of incubation under gentle agitation, cell lysates are centrifuged at 14,000 x g for 30 minutes. Lysates are frozen in aliquots at -20°C or used immediately. Immunoprecipitation is performed by incubation overnight of lysates with rat anti-mouse CD4 (GK 1.5, Biolegend, San Diego, CA, USA) under gentle agitation at 4°C. The antigen-antibody complex is then added to Protein A/G resin slurry (Pierce, Thermo Fisher scientific), and incubated with gentle mixing for 2 hours at room temperature, and finally microcentrifuged for 30 seconds. The pellet is washed five times with solubilization buffer, and the immunoprecipitated material is eluted by incubating the complex for 2-5 minutes at 95-100°C in Laemmli sample buffer prepared without β-ME. […] Infrared fluorescence of the secondary antibodies was read on an Odyssey Imaging System, and quantification of bands was performed using the ImageStudio Lite software (LI-COR Biosciences).

[6] = injected TA, vs non-treated control groups

O=C(O)c1ccc(-c2c3nc(c(-c4ccc(C(=O)O)cc4)c4ccc([n-]4)c(-c4ccc(C(=O)O)cc4)c4nc(c(-c5ccc(C(=O)O)cc5)c5ccc2[n-]5)C=C4)C=C3)cc1.[Mn+3] [MnTBAP, manganese [III] tetrakis (4-benzoic acid) porphyrin]
muscle integrity ([1]; 80 mg/kg IP daily 5 days): normal muscle integrity
CD8a mRNA expression [1, 6]: decrease of CD8a mRNA expression
SGCA transgene expression [1, 6]: increase of the SGCA transgene expression
transduction efficiency of human T cells (GFP^+ cells) [2]: significantly decreased
cell death (eFluor 780+ dead cells) [3]: doesn't result in more eFluor 780+ dead cells
Reactive Oxygen Species (ROS), average radiance of left inferior limb [4]: produce less Reactive Oxygen Species (ROS)
link between CD4 and P56^Lck [5]: disruption of CD4 and P56^Lck is observed
